The values below come from ChEMBL document CHEMBL1132532, “Correlation of anti-HIV activity with structure: use of electrostatic potential and conformational analysis” (Bioorg Med Chem Lett, 1999).

The term IC50 denotes the concentration at which inhibition is half-maximal. A lower IC50 goes with greater potency.

Holding throughout (assay type): functional, cell-based
Holding throughout (conditions): Homo sapiens

In one experiment the test system is PBMC. Description: The compound was tested for anti HIV-activity (active) against PBM cell line.
For a further experiment, the system named is MT4. The experiment can be described thus: The compound was tested for anti HIV-activity (active) against MT-4 cell line.
Another experiment has as its system ATH-8 cell line. Description: The compound was tested for anti HIV-activity (active) against ATH8 cell line.
The test system of the next experiment is MT2. Description: The compound was tested for anti HIV-activity (active) against MT-2 cell line.

In the experiment on PBMC, `Nc1ncnc2c1ncn2[C@@H]1CO[C@H](CO)C1` came in with an IC50 of 0.67 µM.

In the case of `Nc1nc(O)c2ncn(C3COC(CO)C3)c2n1` (stereo not drawn), the half-inhibitory concentration (IC50) in the experiment with MT4 was more than 200 µM.

In the case of `Nc1ncnc2c1ncn2[C@@H]1C[C@H](CO)CO1`, the half-maximal inhibitory concentration (IC50) with MT4 was more than 200 µM.

`Nc1ncnc2c1ncn2[C@H]1C[C@@H](CO)CO1` registered an IC50 with MT4 of more than 200 µM.

Take `Nc1ncnc2c1ncn2[C@@H]1O[C@H](CO)[C@H]1CO`: the concentration for half-maximal inhibition (IC50) in the experiment with MT4 turned out to be 4 µM.

`Nc1ncnc2c1ncn2[C@H]1CO[C@@H](CO)C1`: the values for the IC50 in the experiment with ATH-8 cell line and in the experiment with MT4 were 15 µM and 43 µM, respectively.

With `Cc1cn(C2COC(CO)C2)c(=O)[nH]c1=O` (stereo not drawn), the IC50 in the experiment with MT4 was more than 200 µM.

In the case of `Nc1ccn(C2COC(CO)C2)c(=O)n1` (stereo not drawn), in the experiment on MT4, the IC50 is more than 200 µM.

As for `Nc1nc(O)c2ncn(C3C=CC(CO)O3)c2n1` (stereo not drawn), the 50% inhibitory concentration (IC50) in the experiment on ATH-8 cell line and in the experiment on MT2 was 0.19 µM throughout.

With `Cc1cn([C@H]2C[C@H](N=[N+]=[N-])[C@@H](CO)O2)c(=O)[nH]c1=O` [ZIDOVUDINE], the IC50 with ATH-8 cell line was 0.4 µM; in the experiment with PBMC, 0.004 µM.
